In the assay the target is T1, 5-hydroxytryptamine receptor 1A (Homo sapiens, UniProt P08908).
T1 sequence (P08908 whole entry): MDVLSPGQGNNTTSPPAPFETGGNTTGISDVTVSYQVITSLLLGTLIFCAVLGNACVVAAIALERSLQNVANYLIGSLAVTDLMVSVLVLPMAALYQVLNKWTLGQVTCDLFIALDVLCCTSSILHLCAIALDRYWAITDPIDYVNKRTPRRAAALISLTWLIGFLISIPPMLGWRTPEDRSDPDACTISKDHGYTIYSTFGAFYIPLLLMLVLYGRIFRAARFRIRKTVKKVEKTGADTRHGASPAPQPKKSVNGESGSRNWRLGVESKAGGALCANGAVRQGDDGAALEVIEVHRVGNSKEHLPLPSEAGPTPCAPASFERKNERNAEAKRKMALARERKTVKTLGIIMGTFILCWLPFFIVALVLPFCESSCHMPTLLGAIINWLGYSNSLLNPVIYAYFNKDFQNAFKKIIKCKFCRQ

Take `COc1ccccc1N1CCN(CCCNc2c(C)c(=O)n(C)c(=O)n2C)CC1` [Urapidil-5-methyl]: the affinity corresponds to a Ki of 0.35 nM.

Turning to `COc1c(O)c(O)cc2c1CC(N)CC2` (stereo not drawn) [5-OME-3-ADTN], the Ki was 1 nM.

`O=C1c2ccccc2S(=O)(=O)N1CCCCN1CCN(c2ncccn2)CC1` [1,1-Dioxo-2-[4-(4-pyrimidin-2-yl-piperazin-1-yl)-butyl]-1,2-dihydro-1lambda*6*-benzo[d]isothiazol-3-one] registered a Ki of 10 nM. Compared with the last compound, the Ki is about 10-fold higher.

As for `CC(C)(C)NCC(O)COc1ccccc1C1CCCC1` (single isomer, unassigned; (-)) [NSC_37464], the affinity corresponds to a Ki of 8 nM.

For the compound `O=C(NCCN1CCN(c2cccc3c2OCC(CO)O3)CC1)c1ccc(F)cc1` (stereo not drawn) [FLESINOXAN], affinity was put at a Ki of 3 nM.

Compound `CCCN(CCCCN1C(=O)CC2(CCCC2)CC1=O)C1COc2cccc(OC)c2C1` (stereo not drawn) [NSC_121851] displayed a Ki of 0.2 nM.

`COc1ccccc1N1CCN(C[C@@H](C(=O)NC(C)(C)C)c2ccccc2)CC1` [WAY 100135]: the Ki was determined as 20 nM.

For `CCCN(CCC)CCc1c[nH]c2ccc(C(N)=O)cc12` [NN-DIPROP-5-CT], affinity was put at a Ki of 0.2 nM.

Regarding `COC(=O)c1cc2c(N3CCN(CCCCN4C(=O)c5ccccc5S4(=O)=O)CC3)cccc2[nH]1` [CAS_141533-35-9], the Ki came to 0.7 nM.

The compound `FC(F)(F)c1cccc(C2=CCN(CCc3ccc4ccccc4c3)CC2)c1` [CAS_90494-79-4] registered a Ki of 2 nM.

For `Clc1cnn(CCCCN2CCN(c3ncccn3)CC2)c1` [CAS_132449-46-8], the Ki amounted to 50 nM. Against the preceding compound, the Ki is about 25-fold higher.

With `COc1ccccc1N1CCN(CCN(C(=O)c2ccc(I)cc2)c2ccccn2)CC1`, the inhibitory constant (Ki) came out at 0.32 nM. Against the preceding compound, the Ki is about 160-fold lower.

`CC(C)(C)NCC(O)COc1cccc2c1SCCC2` (single isomer, unassigned; (-)) [TERTATOLOL(-)] registered a Ki of 10 nM.
